“Also recorded” adds a separate entry of the source.

In test [1] the target is T1, Edg2 receptor (Homo sapiens, UniProt Q92633).
T1 construct: expressed in transfected cells; host or cells: Saccharomyces cerevisiae JEY5 + pJE15
Briefly: FUS1::lacZ reporter assay in yeast expressing the Edg2 receptor. Type of test: cell-based. The settings on record: for activation of FUS1::lacZ by 18:1 analogs (FIG. 4): 200 μM LPA or LPA analog, 18:1 acyl LPA as 100%. An excerpt:
A yeast expressing the Edg2 receptor is one way to avoid such problems of multiple receptors. Edg2 has been functionally expressed in the yeast Saccharomyces cerevisiae and provides a facile system with which to analyze this particular receptor. Edg2 couples to the yeast pheromone response pathway selectively in response to exogenously added LPA and activates two easily assayed reporter genes, lacZ and HIS3, that are fused to the pheromone-inducible FUS1 promoter. […] Although the yeast assay is relatively insensitive to LPA compared with mammalian signaling events (the yeast assay has an E.C.50 of 20 μM), yeast offers the advantage of specificity; the induction of FUS1::lacZ by LPA is absolutely dependent on the Edg2 receptor being expressed.
LacZ assays in response to lysophosphatidic acid and LPA analogs- JEY5+pJE15 was grown on SC media containing either 2% galactose or 2% glucose lacking uracil to an approximate O.D. of 0.1-0.5 prior to the addition of lipid or α-factor. Acyl-LPA chain length analogs; 6:0, 10:0, 14:0, 16:0, 18:0, 18:1 and 24:1 (Avanti Polar Lipids) were stored dissolved in chloroform and dried down under vacuum immediately prior to experiments and resuspended in BBS/EDTA (50 mM NH4HCO3, 104 mM NaCl, 250 μM EDTA2Na pH 7.63) at 20 mM with sonication until the solution was clear. The other analogs that were custom synthesized for this report were stored in 100% ethanol at −20° C., dried and resuspended in BBS/EDTA immediately prior to use. Analogs not having a phosphate were stored in 100% DMSO and added directly to the yeast culture. […] Cells were grown for 7 hours prior to assaying at which time 100 μl of yeast culture were then added to […] assay buffer (60 mM Na2HPO4, 40 mM NaH2PO4, 10 mM KCl, 0.1 mM MgSO4, pH 7.0 plus 2.7 mL β-mercaptoethanol per liter) plus 50 μl 0.1% SDS+three drops Chloroform. Cells were vortexed for 10 seconds and incubated for 5 minutes at 28° C. 200 μl of 4mg/ml o-nitrophenol-β-D-galactopyranoside (ONPG, Sigma) was added and the reaction was incubated 30 minutes at 28° C. The assay was stopped by the addition of 500 μl 1M Na2CO3. Color development was measured at A420 and normalized to A600. Units were expressed as Miller Units. Competition assays between 18:1 acyl-LPA and the short chain analogs were essentially performed in the same manner except that both lipids were added simultaneously and the yeast was allowed to grow for the standard seven-hour time period. ERK immune complex kinase assays- C3H/10T½ cells were cultured in Basal Medium Eagle (BME, Gibco)+10% heat inactivated fetal calf serum until quiescent in 6 cm dishes. Cultures were serum starved for 18 hours in BME and stimulated with LPA or an LPA analog for 5 minutes. Dishes were placed on ice, washed with ice cold PBS and lysed in 500 μL lysis buffer (20 mM Tris pH8.0, 137 mM NaCl, 1mM EGTA, 1% Triton X-100, 10% glycerol, 15 mM MgCl2, 1 mM NaVO4, 50 mM NaF, 1mM Pefabloc, 20 μM Leupeptin, 10 μg/mL Aprotinin). To 200 μg total protein, 2 μL anti-ERK1 and 2 μL anti-ERK2 (Santa Cruz) plus 20 μL protein G-agarose beads (Boehringer-Mannheim, 50% slurry) were added and incubated with continuous rocking for two hours at 4° C. The agarose bead-ERK immune complexes were washed twice with 1mL lysis buffer then once in 1mL kinase buffer (30 mM Tris pH 8.0, 20 mM MgCl2, 2 mM MnCl2) and then drained to dryness with a fine gauge Hamilton syringe. The kinase reaction was started by adding 30 μL kinase buffer containing 2 μg myelin basic protein (MBP, Sigma), 10 μM cold ATP and 2.5 μCi [^32P]γ-ATP (Amersham). The reaction was incubated for 25 minutes at 30° C. and then stopped by the addition of 10 μL hot 4×-sample buffer. The phosphorylated MBP was resolved on a 14% SDS-PAGE gel (Novex), stained, dried and the Coomassie Brilliant Blue-stained band was excise and counted on a liquid scintillation counter (Beckman).
(In a reporter assay the amount or activity of a reporter protein is the signal.)

In test [2] the target is T1, Edg2 receptor. To be noted: cited from earlier work; for activation of FUS1::lacZ (previously known): yeast expressing the Edg2 receptor, previously known results.
Test [3] concerns ERK1 and ERK2. Description: ERK immune complex kinase assay in C3H/10T½ fibroblasts. Type of test: cell-based, Murine. The settings on record: C3H/10T½ fibroblasts treated with 10M analogue, stimulated 5 minutes. The protocol: Since Edg2 couples to Gpa1, this receptor could also couple to Gi in mammalian cells as well. […] Murine C3H/10T½ fibroblasts were treated with […] analogue and assayed for induction of ERK½ activity. […] The structural requirements of LPA with respect to ERK activation are quite different from the yeast Edg2 lacZ reporter assay. For example, the hydroxyl on the sn-2 carbon of the glycerol can be substituted with little effect in the Edg2-mediated activation of FUS1::lacZ whereas in ERK activation, loss of this hydroxyl almost completely abolishes activity.
LacZ assays in response to lysophosphatidic acid and LPA analogs- JEY5+pJE15 was grown on SC media containing either 2% galactose or 2% glucose lacking uracil to an approximate O.D. of 0.1-0.5 prior to the addition of lipid or α-factor. […] Color development was measured at A420 and normalized to A600. Units were expressed as Miller Units. […] The phosphorylated MBP was resolved on a 14% SDS-PAGE gel (Novex), stained, dried and the Coomassie Brilliant Blue-stained band was excise and counted on a liquid scintillation counter (Beckman).

In test [4] the test system is MDA MB 231 cells. To be noted: cited from earlier work.
In test [5] the test system is MDA MB 231 cells. To be noted: cited from earlier work. This is another data set of the same source.
In test [6] the test system is ERK. Briefly: ERK activity in A549 lung carcinoma overexpressing Edg2 mRNA. The class given is cell-based. To be noted: overexpresses Edg2 mRNA. The source says:
Edg2 is not involved in the activation of the MAPKinase ERK. This is somewhat surprising since Edg2 coupled to the endogenous Saccharomyces G-protein, it was reasonable to conclude that Edg2 may couple to mammalian Gi heterotrimeric G-proteins. If this were true, then Edg2 would activate ERK, which is activated by LPA in a pertusis toxin-dependent manner. However, the SAR of LPA for ERK activation is completely different from the SAR of LPA-mediated activation of FUS1::lacZ and calcium mobilization. It is unlikely that expressing this receptor in yeast has changed its ligand binding characteristics. The somatostatin 2A receptor when expressed in yeast maintains it's binding profiles when compared with mammalian cells.

T1 sequence (Q92633 whole entry): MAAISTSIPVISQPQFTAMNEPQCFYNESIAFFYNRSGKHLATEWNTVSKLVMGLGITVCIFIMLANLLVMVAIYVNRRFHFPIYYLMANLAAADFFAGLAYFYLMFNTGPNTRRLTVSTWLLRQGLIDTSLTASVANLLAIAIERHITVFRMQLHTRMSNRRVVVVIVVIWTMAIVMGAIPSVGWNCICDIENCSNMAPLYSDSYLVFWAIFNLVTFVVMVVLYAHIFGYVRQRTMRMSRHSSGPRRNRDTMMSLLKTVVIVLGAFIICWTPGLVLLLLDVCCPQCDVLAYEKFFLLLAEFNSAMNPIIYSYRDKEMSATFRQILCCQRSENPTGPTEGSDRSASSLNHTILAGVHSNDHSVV

With `CCCCCCCC/C=C\CCCCCCCC(=O)OCCCO` [Compound 10, 3-Hydroxypropyl oleate], in test [1], the “activation of FUS1::lacZ by 18:1 analogs (FIG. 4)” value is given as “still retained some lacZ activity”.

`CCCCCCCC/C=C\CCCCCCCCOCC(COP(=O)(O)O)OC` (racemic) [Compound 36, 3-O-Oleyl-2-O-methyl-rac-glycero-1-phosphate]: the “activation of FUS1::lacZ by 18:1 analogs (FIG. 4)” value in test [1] is “inactive”.

As for `CCCCCCCC/C=C\CCCCCCCCOCCCOP(=O)(OC)OC` [Compound 29, Dimethyl 3-oleyloxypropyl-1-phosphate], in test [1], the “activation of FUS1::lacZ by 18:1 analogs (FIG. 4)” value was “inactive”.

As to `CCCCCCCC/C=C\CCCCCCCC(=O)OCC(Br)COP(=O)(O)O` (racemic) [Compound 23, 3-O-Oleoyl-2-deoxy-2-bromo-rac-glycero-1-phosphate], the “activation of FUS1::lacZ by 18:1 analogs (FIG. 4)” value in test [1] is “retained some FUS1::lacZ activity”.

For the molecule `CCCCCC(=O)OC[C@@H](O)COP(=O)(O)O` [Compound 1], in test [2], the “activation of FUS1::lacZ (previously known)” value was “inactive”.

As for `CCCCCCCCCCCCCCCC(=O)OC[C@@H](O)COP(=O)(O)O` [Compound 4], the “activation of FUS1::lacZ (previously known)” value in test [2] was “significant activity”.

In the case of `CCCCCCCC/C=C\CCCCCCCCOCC(O)COP(=O)(O)O` (racemic) [Compound 26, 3-O-Oleyl-rac-glycero-1-phosphate], the “activation of FUS1::lacZ by 18:1 analogs (FIG. 4)” value in test [1] was “inactive”. Besides, the “activation of ERK½ (FIG. 5)” value in test [3] is “can activate ERK almost as well as the ester form”.

With `CCCCCCCC/C=C\CCCCCCCC(=O)OC[C@@H](O)COP(=O)(O)O` [Compound 6], the “activation of FUS1::lacZ (previously known)” value in test [2] is on record as “most active”.

For `CCCCCCCCCCCCCC(=O)OC[C@@H](O)COP(=O)(O)O` [Compound 3, reference compound], the “activation of FUS1::lacZ, dependence on acyl chain length (FIG. 2)” value in test [1] (yeast expressing the Edg2 receptor, acyl-LPA chain length analogs) is “inactive”.

As for `CCCCCCCCCCCCCCCCCC(=O)OC[C@@H](O)COP(=O)(O)O` [Compound 5], in test [2], the “activation of FUS1::lacZ (previously known)” value is listed as “significant activity”.

Turning to `CCCCCCCC/C=C\CCCCCCCC(=O)OCC(COP(=O)(OC)OC)OC` (racemic) [Compound 18, Dimethyl 3-O-oleoyl-2-O-methyl-rac-glycero-1-phosphate], the “activation of FUS1::lacZ by 18:1 analogs (FIG. 4)” value in test [1] was “had less lacZ activity”.

Consider `CCCCCCCC/C=C\CCCCCCCC(=O)OCCCOP(=O)(O)O` [Compound 12, 1-(3-propyl oleoate) phosphate], for which the “activation of FUS1::lacZ by 18:1 analogs (FIG. 4)” value in test [1] is recorded as “retained some FUS1::lacZ activity; also recorded: increased activity significantly; also recorded: does activate FUS1::lacZ”. Also, the “activation of ERK½ (FIG. 5)” value in test [3] is on record as “does not activate ERK”. For the same molecule, the “inhibition of cAMP accumulation” value in test [4] was “does not inhibit cAMP accumulation”. The calcium mobilization entry in test [5] was “only slightly mobilizes calcium”.

For `CCCCCCCC/C=C\CCCCCCCC(=O)OCCCOP(=O)(OC)OC` [Compound 11, Dimethyl 1-(3-propyl oleoate) phosphate], in test [1], the “activation of FUS1::lacZ by 18:1 analogs (FIG. 4)” value is listed as “had less lacZ activity”.

On to “O-acyl-2-hydroxyl-sn-glycero-3-phosphate [LPA]”, for which the “stimulation of ERK activity” value in test [6] is “does not stimulate ERK activity”. The EC50 in test [2] (yeast expressing Edg2, FUS1::lacZ reporter, read-out: E.C.50 of the yeast assay) is 20 µM.

In the case of `CCCCCCCCCC(=O)OC[C@@H](O)COP(=O)(O)O` [Compound 2], the “activation of FUS1::lacZ (previously known)” value in test [2] is “inactive”.

As to `CCCCCCCC/C=C\CCCCCCCC(=O)OCC(CO)OC` (racemic) [Compound 17, 1-O-Oleoyl-2-O-methyl-rac-glycerol], the “activation of FUS1::lacZ by 18:1 analogs (FIG. 4)” value in test [1] is “still retained some lacZ activity”.

The record behind these values is US6380177B1, “LPA analogs as agonists of the Edg2 LPA receptor” (Atairgin Technologies, Inc., priority 1999, dated 2002).
